According to patent publication US20140243332A1, “METHODS OF TREATING CANCERS CHARACTERIZED BY ABERRENT ROS1 ACTIVITY” (Oregon Health & Science University, priority 2013, published 2014):
Read-outs that look alike come from different tables or passages of the source.

Legend:
[1] = test system: SLC-ROS and ERK1/2 phosphorylation; assay: Immunoblot of HCC78 lysates; type: cell-based, human; settings: HCC78 cells, immunoblot FIG. 1E
Protocol: FIG. 1E is an image of an immunoblot of lysates of HCC78 cells probing for phosphorylated and total SLC-ROS1 and ERK1/2, and phosphorylated protein S6 after treatment with the indicated concentration of the indicated inhibitor. The images are representative of two independent experiments.
Ba/F3 FIG-ROS, Ba/F3 SLC-ROS, HCC78 and mCC cell lines were treated with the indicated concentration of inhibitors for 1-2 hours. […] The protein content of the cell lysates was determined and lysates were either used for immunoprecipitation where indicated or extracted with SDS Sample buffer for 15 minutes at 80° C. Proteins were transferred to Immobilon-FL membranes and immunoblotted with antibodies specific for phospho-ROS1 (Cell Signaling Technology (CST) #3078), total ROS1 (CST #3266), phopsho-Shp2 (CST #3751), total Shpt (CST #3752), phospho-Stat3 (CST #9145), total Stat3 (CST #4904), phospho-Erk1/2 (CST #9101), total Erk2 (Santa Cruz #SC-1647), phospho-S6 (CST #4858), total S6 (CST #2216), phospho-Src (CST #2105), total Src (CST #2110), α-tubulin (Sigma T6199), or β-actin (Sigma A1978) as indicated. Images of the blots were generated by the LI-COR Odyssey® imaging system, following the manufacturer's protocol for immunoblot detection with use of IR-dye conjugated secondary antibodies.

[2] = biological target: Ba/F3 FIG-ROS L1982F cells (Homo sapiens, UniProt P08922, L1982F, cells depend on it); assay: Cell viability assay, Ba/F3 FIG-ROS L1982F; type: cell-based; settings: Table 3, Ba/F3 FIG-ROS L1982F; nM; read-out: IC50 (the source's name)
Protocol: Cell lines were distributed in 96-well plates and incubated with the indicated concentrations of inhibitor for 72 hours. […] Ba/F3 cell lines were plated at 4×10^3 cells/well. HCC78 and mCC cell lines were plated at 1.5×10^3 cells/well. All cell types were seeded in a final volume of 80 microliters. A 20 microliter volume of five-fold concentrated inhibitor media was added. Cell proliferation was measured using a […] viability assay (CellTiter96 Aqueous One® Solution; Promega). A BioTek Synergy 2® plate reader was used to read the absorbance at 490 nm at 30 minutes and 1 hour after addition of MTS. To facilitate comparison between experiments, the raw MTS absorbance of vehicle (0.1% DMSO) treated cells was set to 1 and absorbance from inhibitor treated wells was normalized to the vehicle treated value. […] Data were normalized using Microsoft Excel® and further non-linear regression curve fit analysis of the normalized data for determination of IC50 was performed using Graphpad Prism® software.
The FIG-ROS-S fusion gene was synthesized using the GeneArt® service. FIG-ROS-S is denoted as FIG-ROS herein.

NIH3T3 FIG-ROS cells = assay: Soft agar colony formation, NIH3T3 FIG-ROS; type: cell-based; settings: at lower doses than crizotinib
Text: The bottom panels are bar graphs indicating the number of colonies formed from the plates depicted in the top panels. The values indicate average colony number±SEM from 4 independent wells.

HCC78 cells = assay: HCC78 cell migration (scratch gap closure); type: cell-based, human; settings: 50 nM, 18 hours, FIG. 6A
Protocol: FIG. 6A is a set of six images on the left and a bar graph on the right. The images at left are of a gap at 10 minutes and at 18 hours after ‘scratch’ of cells on a surface. […] The right panel is a bar graph depicting the percent of gap closure determined by measuring the length of a straight line drawn across the gap from imaging the same field of view at initiation of treatment and at 18 hours. Scale bar=200 μm

Ba/F3 FIG-ROS cells = biological target: T1, Ba/F3 FIG-ROS cells (Homo sapiens, UniProt P08922); assay: Cell viability (MTS) assay, Ba/F3 FIG-ROS; type: cell-based
T1 construct: fused on or other part: GFP is co-expressed from an IRES in pMIG and is not fused; Q9HD26 (Golgi-associated PDZ and coiled-coil motif-containing protein)
Text: Ba/F3 cell lines were maintained at densities of 0.5×10^6 to 1.5×10^6 per ml of media. FIG-ROS and SLC-ROS Ba/F3 lines were created by infecting the parental Ba/F3 with retrovirus expressing either human FIG-ROS-S (indicated FIG-ROS herein) or SLC-ROS-S (indicated SLC-ROS herein). Stable transfectant lines were sorted for GFP expression on a FACS Aria® flow cytometer. Cells were counted daily using Guava ViaCount® reagent and Guava Personal Cell Analysis® flow cytometer. […] Early passage NIH3T3 cells were infected with retrovirus expressing either FIG-ROS or SLC-ROS and sorted for GFP expression as described above for Ba/F3 cells. […] This media is referred to as RPMI-10% FBS herein.
The FIG-ROS-S (FIG-ROS) fusion protein has been reported in non-small cell lung cancers (NSCLC), glioblastomas, and cholangiocarcinomas.

Ba/F3 parental cells = assay: Cell viability (MTS) assay, Ba/F3 parental; type: cell-based; settings: Mus musculus, BaF3, read-out: IC50 (insensitive/resistant up to stated concentration)
Protocol: The parental Ba/F3 cell line was cultured in RPMI 1640 medium with 10% FBS, L-glutamine, penicillin/streptomycin and 15% WEHI-conditioned media. Ba/F3 cell lines were maintained at densities of 0.5×10^6 to 1.5×10^6 per ml of media. FIG-ROS and SLC-ROS Ba/F3 lines were created by infecting the parental Ba/F3 with retrovirus expressing either human FIG-ROS-S (indicated FIG-ROS herein) or SLC-ROS-S (indicated SLC-ROS herein). Stable transfectant lines were sorted for GFP expression on a FACS Aria® flow cytometer. Cells were counted daily using Guava ViaCount® reagent and Guava Personal Cell Analysis® flow cytometer. […] Early passage NIH3T3 cells were infected with retrovirus expressing either FIG-ROS or SLC-ROS and sorted for GFP expression as described above for Ba/F3 cells. HCC78 cells were cultured in RPMI 1640 medium with 10% FBS, L-glutamine, and penicillin/streptomycin. This media is referred to as RPMI-10% FBS herein.
[…]. The Ba/F3 parental line was also tested. (O'Dwyer M E and Druker B J, Lancet Oncology 1, 207-211 (2000); Walters D K et al, Cancer Cell 10, 65-75 (2006); and Heukamp L C et al, Science Translational Medicine 4, 141ra191 (2012); […].

Ba/F3 ALK F1174L cells = Ba/F3 ALK F1174L cells (Homo sapiens, UniProt Q9UM73, F1174L, cells depend on it); assay: Cell viability (MTS) assay, Ba/F3 ALK F1174L; type: cell-based; settings: 72 hours, read-out: IC50 (the source's name)

How did the “inhibition of SLC-ROS and ERK1/2 phosphorylation” value [1] turn out when `COc1cc2c(Oc3ccc(NC(=O)C4(C(=O)Nc5ccc(F)cc5)CC4)cc3F)ccnc2cc1OCCCN1CCOCC1` [foretinib, N1′-[3-fluoro-4-[[6-methoxy-7-(3-morpholinopropoxy)-4-quinolyl]oxy]phenyl]-N1-(4-fluorophenyl)cyclopropane-1,1-dicarboxamide] was run?
Its value is “at a lower concentration than did crizotinib”.

And the GI50 [2]?
The GI50 was 15.3 nM.

And the anchorage-independent colony formation (NIH3T3 FIG-ROS cells)?
Its anchorage-independent colony formation is “strongly suppressed”.

And the HCC78 cell migration (HCC78 cells)?
The HCC78 cell migration was “more potently inhibited by foretinib than crizotinib”.

And the GI50 (Ba/F3 FIG-ROS cells; Table 3, mutant: None (Ba/F3 FIG-ROS), nM, read-out: IC50 (the source's name))?
Its GI50 is 2.03 nM.

What about the GI50 (Ba/F3 FIG-ROS cells; read-out: IC50 (50% growth inhibitory concentration), Ba/F3 FIG-ROS cells, 72 hours, MTS) of the same compound?
Its GI50 is 2 nM.

And the GI50 (Ba/F3 FIG-ROS cells; read-out: IC50 (50% growth inhibitory concentration), Ba/F3 FIG-ROS cells, 72 hours, MTS, listed as Foretinib)?
Its GI50 is 2.2 nM.

What about the IC50 (Ba/F3 parental cells) of the same compound?
Its IC50 is > 2000 nM.

And the GI50 (Ba/F3 ALK F1174L cells)?
Its GI50 is 1800 nM.
